Patent publication US20260070945A1, “MACROCYCLIC IMMUNOMODULATORS” (Bristol-Myers Squibb Company, priority 2022, published 2026)
Where a SMILES comes first, the peptide text is derived from it. Bridges are numbered along the chain shown (N, C = ends). [ ]: non-standard residue; d: D form. The star is where a group is joined. ξ: configuration not given here. Phe(3-CF3) = N[C@@H](Cc1cccc(C(F)(F)F)c1)C(=O)O; Phe(4-COOH) = N[C@@H](Cc1ccc(C(=O)O)cc1)C(=O)O; Bip = N[C@@H](Cc1ccc(-c2ccccc2)cc1)C(=O)O; Phe(3-Me) = Cc1cccc(C[C@H](N)C(=O)O)c1; NH(CH2)12COOH = O=C(O)CCCCCCCCCCCCN*; Val(3-OH) = CC(C)(O)[C@H](N)C(=O)O; 4Pal = N[C@@H](Cc1ccncc1)C(=O)O; Cha = N[C@@H](CC1CCCCC1)C(=O)O; Cit = NC(=O)NCCC[C@H](N)C(=O)O; Ile(3ξ) = CCC(C)[C@H](N)C(=O)O; Thr(3ξ) = CC(O)[C@H](N)C(=O)O; dDab = NCC[C@@H](N)C(=O)O; Carboxymethyl = O=C(O)C*; NMeA = CN[C@@H](C)C(=O)O; Orn = NCCC[C@H](N)C(=O)O; Aun = NCCCCCCCCCCC(=O)O; Dab = NCC[C@H](N)C(=O)O; AEEA = NCCOCCOCC(=O)O; Sar = CNCC(=O)O

What follows are molecules tested against T1, PD-1/PD-L1 interaction (PE-labeled human PD-L1-Ig binding to Jurkat cell line over-expressing human PD-1) (Homo sapiens, UniProt Q15116) (assay: Jurkat-PD-1 Cell Binding High-Content Screening Assay (CBA)). Details: Jurkat-hPD-1 cells, PE-labeled PD-L1-Ig 20 nM final; read-out: Jurkat HPD1 PDL1 IC50.
T1 construct: expressed in transfected cells; host or cells: Jurkat
T1 sequence (Q15116 25-288): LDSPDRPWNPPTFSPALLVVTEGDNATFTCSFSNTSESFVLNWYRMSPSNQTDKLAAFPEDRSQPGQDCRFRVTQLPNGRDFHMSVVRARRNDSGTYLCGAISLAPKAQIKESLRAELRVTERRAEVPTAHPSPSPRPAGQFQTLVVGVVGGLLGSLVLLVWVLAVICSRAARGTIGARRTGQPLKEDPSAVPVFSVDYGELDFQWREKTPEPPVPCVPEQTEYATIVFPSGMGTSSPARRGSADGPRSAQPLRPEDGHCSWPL
In short: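 Compound is added first to the PD-1-expressing Jurkat cells and held 2 h at 37 °C in serum-containing DMEM. The fluorescent PD-L1 fusion follows at 20 nM final for 1 h. Fixed, Hoechst-stained cells are then imaged for bound label.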

Compared with `CC(=O)NCCCC[C@@H]1NC(=O)[C@H](C(C)C)NC(=O)[C@H](CC2CCCCC2)NC(=O)[C@H](CCN)NC(=O)[C@@H](CC(C)C)NC(=O)[C@H](C)N(C)C(=O)[C@H](Cc2ccc(O)cc2)NC(=O)[C@H](Cc2ccc(-c3ccccc3)cc2)NC(=O)[C@H](C(C)C)NC(=O)[C@H](Cc2cccc(C)c2)NC(=O)[C@H](CC(=O)O)NC(=O)[C@H](Cc2ccc(OCC(=O)O)cc2)NC(=O)[C@H](Cc2cnc[nH]2)NC(=O)CSC[C@@H](C(=O)N(C)CC(=O)NCCCCCCCCCCC(=O)O)NC1=O` [Example 2272] ({CH2CO}-HY(Carboxymethyl)D[Phe(3-Me)]V[Bip]Y[NMeA][dL][Dab][Cha]VK(Ac)C[Sar][Aun]-OH; thioether N-14), `Cc1cccc(C[C@@H]2NC(=O)[C@H](CC(=O)O)NC(=O)[C@H](Cc3cnc[nH]3)NC(=O)[C@H](Cc3ccc(OCC(=O)O)cc3)NC(=O)CSC[C@@H](C(=O)NCCCCCCCCCCC(=O)O)NC(=O)[C@H](CCC(=O)O)NC(=O)[C@H](C(C)C)NC(=O)[C@H](CC3CCCCC3)NC(=O)[C@H](CCN)NC(=O)[C@@H](CC(C)C)NC(=O)[C@H](C)N(C)C(=O)[C@H](Cc3ccc(O)cc3)NC(=O)[C@H](Cc3ccc(-c4ccccc4)cc3)NC(=O)[C@H](CCC(N)=O)NC2=O)c1` [Example 2258] ({CH2CO}-Y(Carboxymethyl)HD[Phe(3-Me)]Q[Bip]Y[NMeA][dL][Dab][Cha]VEC[Aun]-OH; thioether N-14) is 3.3-fold higher in IC50: 0.231 µM for the first, 0.765 µM for the second. The first is the more potent here.

Compared with `Cc1cccc(C[C@@H]2NC(=O)[C@H](CC(=O)O)NC(=O)[C@H](Cc3ccc(OCC(=O)O)cc3)NC(=O)[C@H](CCCNC(=N)N)NC(=O)CSC[C@@H](C(=O)NCCOCCOCC(=O)NCCCCCCCCCCC(=O)O)NC(=O)[C@H](C(C)O)NC(=O)[C@H](C(C)C)NC(=O)[C@H](CC3CCCCC3)NC(=O)[C@H](CCN)NC(=O)[C@@H](CC(C)C)NC(=O)[C@H](C)N(C)C(=O)[C@H](CCCNC(N)=O)NC(=O)[C@H](Cc3ccc(-c4ccccc4)cc3)NC(=O)[C@H](C(C)C)NC2=O)c1` (stereo partly drawn) [Example 2318] ({CH2CO}-RY(Carboxymethyl)D[Phe(3-Me)]V[Bip][Cit][NMeA][dL][Dab][Cha]V[Thr(3ξ)]C[AEEA][Aun]-OH; thioether N-14), `CC(C)C[C@@H]1NC(=O)[C@H](Cc2c[nH]c3ccccc23)NC(=O)[C@H](CC(=O)O)NC(=O)[C@H](Cc2ccc(C(=O)O)cc2)NC(=O)[C@H](Cc2ccc(OCC(=O)O)cc2)NC(=O)CSC[C@@H](C(=O)N[C@@H](CCCCN)C(=O)NCCOCCOCC(=O)NCCCCCCCCCCC(=O)O)NC(=O)[C@@H](CO)NC(=O)[C@H](C(C)C)NC(=O)[C@H](CC2CCCCC2)NC(=O)[C@H](CCN)NC(=O)[C@@H](CC(C)C)NC(=O)[C@H](C)N(C)C(=O)[C@H](C(C)C)NC(=O)[C@H](Cc2ccc(-c3ccccc3)cc2)NC1=O` [Example 1246] ({CH2CO}-Y(Carboxymethyl)[Phe(4-COOH)]DWL[Bip]V[NMeA][dL][Dab][Cha]V[dS]CK[AEEA][Aun]-OH; thioether N-14) is 4.1-fold higher in IC50: 0.0078 µM for the first, 0.0319 µM for the second. The first is the more potent here.

Compared with `CC(C)C[C@@H]1NC(=O)[C@H](Cc2c[nH]c3ccccc23)NC(=O)[C@H](CC(=O)O)NC(=O)[C@H](Cc2ccc(C(=O)O)cc2)NC(=O)[C@H](Cc2ccc(OCC(=O)O)cc2)NC(=O)CSC[C@@H](C(=O)NCCOCCOCC(=O)NCCCCCCCCCCC(=O)O)NC(=O)[C@H](CCC(=O)O)NC(=O)[C@H](C(C)(C)O)NC(=O)[C@H](CC2CCCCC2)NC(=O)[C@H](CCN)NC(=O)[C@@H](CC(C)C)NC(=O)[C@H](C)N(C)C(=O)[C@H](C(C)C)NC(=O)[C@H](Cc2ccc(-c3ccccc3)cc2)NC1=O` [Example 1112] ({CH2CO}-Y(Carboxymethyl)[Phe(4-COOH)]DWL[Bip]V[NMeA][dL][Dab][Cha][Val(3-OH)]EC[AEEA][Aun]-OH; thioether N-14), `CC(C)C[C@@H]1NC(=O)[C@H](Cc2c[nH]c3ccccc23)NC(=O)[C@H](CC(=O)O)NC(=O)[C@H](Cc2ccc(C(=O)O)cc2)NC(=O)[C@H](Cc2ccc(OCC(=O)O)cc2)NC(=O)CSC[C@@H](C(=O)N[C@@H](CCCN)C(=O)NCCOCCOCC(=O)NCCCCCCCCCCC(=O)O)NC(=O)[C@H](CC(=O)O)NC(=O)[C@H](C(C)C)NC(=O)[C@H](CC2CCCCC2)NC(=O)[C@H](CCN)NC(=O)[C@@H](CC(C)C)NC(=O)[C@H](C)N(C)C(=O)[C@H](C(C)C)NC(=O)[C@H](Cc2ccc(-c3ccccc3)cc2)NC1=O` [Example 2125] ({CH2CO}-Y(Carboxymethyl)[Phe(4-COOH)]DWL[Bip]V[NMeA][dL][Dab][Cha]VDC[Orn][AEEA][Aun]-OH; thioether N-14) is 4.1-fold lower in IC50: 0.0471 µM for the first, 0.0115 µM for the second. The second is the more potent here.

`CCC(C)[C@@H]1NC(=O)[C@H](Cc2ccc(-c3ccccc3)cc2)NC(=O)[C@H](C(C)C)NC(=O)[C@H](Cc2c[nH]c3ccccc23)NC(=O)[C@H](CC(=O)O)NC(=O)[C@H](Cc2ccc(OCC(=O)O)cc2)NC(=O)[C@H](Cc2ccc(OCC(=O)O)cc2)NC(=O)CSC[C@@H](C(=O)N[C@H](CC(N)=O)C(=O)NCCCCCCCCCCC(=O)O)NC(=O)[C@H](CCCNC(N)=O)NC(=O)[C@H](C(C)C)NC(=O)[C@H](CC2CCCCC2)NC(=O)[C@H](CCN)NC(=O)[C@@H](CC(C)C)NC(=O)[C@H](C)N(C)C1=O` (stereo partly drawn) [Example 2297] ({CH2CO}-Y(Carboxymethyl)Y(Carboxymethyl)DWV[Bip][Ile(3ξ)][NMeA][dL][Dab][Cha]V[Cit]C[dN][Aun]-OH; thioether N-14) and `Cc1cccc(C[C@@H]2NC(=O)[C@H](CC(=O)O)NC(=O)[C@H](Cc3ccc(OCC(=O)O)cc3)NC(=O)[C@H](Cc3ccncc3)NC(=O)CSC[C@@H](C(=O)N[C@@H](CCN)C(=O)NCCCCCCCCCCC(=O)O)NC(=O)[C@H](CO)NC(=O)[C@H](C(C)(C)O)NC(=O)[C@H](CC3CCCCC3)NC(=O)[C@H](CCN)NC(=O)[C@@H](CC(C)C)NC(=O)[C@H](C)N(C)C(=O)[C@H](Cc3ccc(OCC(=O)O)cc3)NC(=O)[C@H](Cc3ccc(-c4ccccc4)cc3)NC(=O)[C@H](Cc3ccc(OCC(=O)O)cc3)NC2=O)c1` [Example 1287] ({CH2CO}-[4Pal]Y(Carboxymethyl)D[Phe(3-Me)]Y(Carboxymethyl)[Bip]Y(Carboxymethyl)[NMeA][dL][Dab][Cha][Val(3-OH)]SC[Dab][Aun]-OH; thioether N-14) are within 1.5-fold of each other in IC50: 0.0085 µM for the first, 0.009 µM for the second.

Same assay, conditions: PE-labeled PD-L1-Ig 20 nM final, Jurkat-hPD-1 cells; read-out: Jurkat HPD1 PDL1 IC50

Going from `CC(C)C[C@H]1NC(=O)[C@H](C)N(C)C(=O)[C@H](Cc2ccc(C(=O)O)cc2)NC(=O)[C@H](Cc2ccc(-c3ccccc3)cc2)NC(=O)[C@H](Cc2ccc(C(=O)O)cc2)NC(=O)[C@H](Cc2cccc(C(F)(F)F)c2)NC(=O)[C@H](CC(=O)O)NC(=O)[C@H](Cc2ccc(C(=O)O)cc2)NC(=O)[C@H](C(C)O)NC(=O)CSC[C@@H](C(=O)N[C@@H](CCN)C(=O)NCCCCCCCCCCC(=O)O)NC(=O)[C@H](CO)NC(=O)[C@H](C(C)(C)O)NC(=O)[C@H](CC2CCCCC2)NC(=O)[C@H](CCN)NC1=O` (stereo partly drawn) [Example 2567] ({CH2CO}-[Thr(3ξ)][Phe(4-COOH)]D[Phe(3-CF3)][Phe(4-COOH)][Bip][Phe(4-COOH)][NMeA][dL][Dab][Cha][Val(3-OH)]SC[Dab][Aun]-OH; thioether N-14) to `CC(C)C[C@H]1NC(=O)[C@H](C)N(C)C(=O)[C@H](Cc2ccc(C(=O)O)cc2)NC(=O)[C@H](Cc2ccc(-c3ccccc3)cc2)NC(=O)[C@H](Cc2ccc(C(=O)O)cc2)NC(=O)[C@H](Cc2cccc(C(F)(F)F)c2)NC(=O)[C@H](CC(=O)O)NC(=O)[C@H](Cc2ccc(C(=O)O)cc2)NC(=O)[C@H](C(C)O)NC(=O)CSC[C@@H](C(=O)N[C@H](CCN)C(=O)NCCOCCOCC(=O)NCCCCCCCCCCCCC(=O)O)NC(=O)[C@H](CC(=O)O)NC(=O)[C@H](C(C)C)NC(=O)[C@H](CC2CCCCC2)NC(=O)[C@H](CCN)NC1=O` (stereo partly drawn) [Example 2604] ({CH2CO}-[Thr(3ξ)][Phe(4-COOH)]D[Phe(3-CF3)][Phe(4-COOH)][Bip][Phe(4-COOH)][NMeA][dL][Dab][Cha]VDC[dDab][AEEA]-{NH(CH2)12COOH}; thioether N-14), the IC50 rises from 0.0022 µM to 0.428 µM (190-fold). The first is the more potent here.

`Cc1cccc(C[C@@H]2NC(=O)[C@H](CC(=O)O)NC(=O)[C@H](Cc3ccc(OCC(=O)O)cc3)NC(=O)[C@H](Cc3ccncc3)NC(=O)CSC[C@@H](C(=O)N[C@@H](CCCN)C(=O)NCCOCCOCC(=O)NCCCCCCCCCCC(=O)O)NC(=O)[C@H](CCC(=O)O)NC(=O)[C@H](C(C)(C)O)NC(=O)[C@H](CC3CCCCC3)NC(=O)[C@H](CCN)NC(=O)[C@@H](CC(C)C)NC(=O)[C@H](C)N(C)C(=O)[C@H](Cc3ccc(C(=O)O)cc3)NC(=O)[C@H](Cc3ccc(-c4ccccc4)cc3)NC(=O)[C@H](Cc3ccc(C(=O)O)cc3)NC2=O)c1` [Example 2497] ({CH2CO}-[4Pal]Y(Carboxymethyl)D[Phe(3-Me)][Phe(4-COOH)][Bip][Phe(4-COOH)][NMeA][dL][Dab][Cha][Val(3-OH)]EC[Orn][AEEA][Aun]-OH; thioether N-14) and `Cc1cccc(C[C@@H]2NC(=O)[C@H](CC(=O)O)NC(=O)[C@H](Cc3ccc(OCC(=O)O)cc3)NC(=O)[C@H](C(C)O)NC(=O)CSC[C@@H](C(=O)N[C@@H](CCN)C(=O)NCCOCCOCC(=O)NCCCCCCCCCCC(=O)O)NC(=O)[C@H](C(C)O)NC(=O)[C@H](C(C)(C)O)NC(=O)[C@H](CC3CCCCC3)NC(=O)[C@H](CCN)NC(=O)[C@@H](CC(C)C)NC(=O)[C@H](C)N(C)C(=O)[C@H](Cc3ccc(OCC(=O)O)cc3)NC(=O)[C@H](Cc3ccc(-c4ccccc4)cc3)NC(=O)[C@H](Cc3ccc(OCC(=O)O)cc3)NC2=O)c1` (stereo partly drawn) [Example 2468] ({CH2CO}-[Thr(3ξ)]Y(Carboxymethyl)D[Phe(3-Me)]Y(Carboxymethyl)[Bip]Y(Carboxymethyl)[NMeA][dL][Dab][Cha][Val(3-OH)][Thr(3ξ)]C[Dab][AEEA][Aun]-OH; thioether N-14) are within 1.5-fold of each other in IC50: 0.0325 µM for the first, 0.0223 µM for the second.
